How the values were obtained:
[1] = system: UKE-1 tumor xenograft; test: UKE-1 tumor xenograft study, modulation of 4-gene signature in tumor; format: in vivo, female NOD.SCID mice; settings: single dose P.O. 60 mg/kg; tumor samples at 4 and 24 hours (FIG. 6)
Protocol: The modulation of gene signature by (R)-3-cyclopentyl-3-[4-(7H-pyrrolo[2,3-d]pyrimidin-4-yl)-1H-pyrazol-1-yl]propanenitrile (ruxolitinib) was further examined in vivo. UKE-1 cells were implanted in female NOD.SCID mice (Harlan) at 1x10e7 cells/mouse. Single dose of (R)-3-cyclopentyl-3-[4-(7H-pyrrolo[2,3-d]pyrimidin-4-yl)-1H-pyrazol-1-yl]propanenitrile was administered P.O. at 60 mg/kg when tumors reached ˜500 mg. Tumor samples were collected at 4 and 24 hours after treatment. The modulation of pSTAT5 in tumor lysate was examined by Western.

[2] = system: pSTAT5; test: Phospho-STAT5 western blot in hematologic tumor cell lines after treatment; format: cell-based; settings: 0.2 μM or 1 μM, 4 hr and 24 hr
Protocol: (§1) […] hematologic tumor cell lines (5 positive for pSTAT5 (AML-193, Hel 92.1.7, Set2, TF-1 and UKE-1) and 4 negative for pSTAT5 (RPM18226, U937, Relt and PL-21) were treated with (R)-3-cyclopentyl-3-[4-(7H-pyrrolo[2,3-d]pyrimidin-4-yl)-1H-pyrazol-1-yl]propanenitrilem, 0.2 μM or 1 μM, and samples were collected at 4 hr and 24 hr after treatment. Phospho-STAT5 was examined by western blot analysis, and the expression of the four signature genes was determined by qPCR. The RNA expression level (ΔCt) of each individual gene in the signature was determined by subtracting the average Ct for the signature gene from the average Ct of the two housekeeper genes (GUSB and TBP). For the normalized relative expression levels the DMSO control treatment ΔCt were set to one and all other treatments the gene Ct values are relative to this value.

[3] = system: four signature genes (PIM1, CISH, SOCS2, ID1); test: qPCR expression of the four signature genes in hematologic tumor cell lines after treatment; format: cell-based; settings: 0.2 μM or 1 μM, 4 hr and 24 hr
Protocol: as §1

[4] = pSTAT5 negative cell lines (RPMI 8226 in FIG. 2A)
[5] = pSTAT5 positive cell lines (TF-1 in FIG. 2B)

## N#CC[C@H](C1CCCC1)n1cc(-c2ncnc3[nH]ccc23)cn1 [(R)-3-cyclopentyl-3-[4-(7H-pyrrolo[2,3-d]pyrimidin-4-yl)-1H-pyrazol-1-yl]propanenitrile]
[1]
  modulation of 4-gene signature in tumor: consistent to that observed in vitro
[2]; [4]
  pSTAT5 modulation: no clear effect
[2]; [5]
  pSTAT5 modulation: down-modulated pSTAT5
[3]; [4]
  changes in signature gene expression: no clear effect
[3]; [5]
  expression of the signature genes: corresponding reduction of the expression of the signature genes

Reference: patent US20150299796A1, “PREDICTION OF TREATMENT RESPONSE TO JAK/STAT INHIBITOR” (priority 2012, published 2015)
